Test results: PMC6409085, “Three odorant-binding proteins are involved in the behavioral response of Sogatella furcifera to rice plant volatiles” (PeerJ, 2019)
Several values for one entry are separate records, joined by “and”; a condition that tells them apart may be missing. Equal values may be shown once.

Key:
SfurOBP11 = SfurOBP11 (Sogatella furcifera, UniProt V5T6E3); assay: biochemical; assay type: binding
Outline: (§1)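 1-NPN displacement assay with odorant competitor at 2–20 µM; protein and probe both 2.0 µM at pH 7.4. Ki is calculated from IC50 using the protein/1-NPN dissociation constant.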

SfurOBP2 = SfurOBP2 (Sogatella furcifera, UniProt V5T759); assay: biochemical; assay type: binding
Outline: as §1

SfurOBP3 = SfurOBP3 (Sogatella furcifera, UniProt V5T818); assay: biochemical; assay type: binding; conditions: for Fluorescence competitive binding assay, fluorescence intensity: OBP3, three replicate columns
Outline: as §1

SfurOBP1 = SfurOBP1 (Sogatella furcifera, UniProt V5T8N5); assay: biochemical; assay type: binding; conditions: for Fluorescence competitive binding assay, fluorescence intensity: OBP1, three replicate columns
Outline: as §1

S. furcifera adults = assay: Y-tube olfactometer behavioral trials; assay type: in vivo, Sogatella furcifera; conditions: odorant 50 µL/L vs hexane
Outline: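 Single S. furcifera adults (2 days post-emergence, starved 0.5 h) chose between odorant (100 µL of 50 µL/L on filter paper) and hexane control in a glass Y-tube, charcoal-filtered humidified air 300 mL/min per arm, 25 ± 1 °C, 50% RH. Choice scored if insect passed half an arm and stayed >1 min within 10 min; 45 insects per compound, chi-squared test.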

Chain of SfurOBP1 (V5T8N5 entry or part of it): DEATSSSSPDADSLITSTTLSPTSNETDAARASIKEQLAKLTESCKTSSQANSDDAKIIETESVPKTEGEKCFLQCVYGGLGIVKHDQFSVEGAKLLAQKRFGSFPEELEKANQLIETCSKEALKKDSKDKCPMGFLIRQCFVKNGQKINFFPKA
Chain of SfurOBP2 (V5T759 entry or part of it): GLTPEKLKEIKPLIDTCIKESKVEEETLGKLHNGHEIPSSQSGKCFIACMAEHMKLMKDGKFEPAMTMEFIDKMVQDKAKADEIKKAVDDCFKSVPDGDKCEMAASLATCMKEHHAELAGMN
Chain of SfurOBP11 (V5T6E3 entry or part of it): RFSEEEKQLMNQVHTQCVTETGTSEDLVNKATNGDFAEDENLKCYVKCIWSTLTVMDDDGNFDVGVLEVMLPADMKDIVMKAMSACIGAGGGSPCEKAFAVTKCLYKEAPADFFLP
Chain of SfurOBP3 (V5T818 entry or part of it): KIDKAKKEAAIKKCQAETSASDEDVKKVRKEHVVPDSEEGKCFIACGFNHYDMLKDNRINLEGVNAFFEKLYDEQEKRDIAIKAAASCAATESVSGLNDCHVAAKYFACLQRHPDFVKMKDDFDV

C=C/C(C)=C/C/C=C(\C)CCC=C(C)C [α-farnesene]
IC50 (SfurOBP11; SfurOBP11, protein and 1-NPN both 2.0 µM, competitor 2-20 µM, read-out: IC50): > 20 µM
Fluorescence intensity, fluorescence competitive binding assay, OBP11 (SfurOBP11; ligand concentration 4, replicate 1): 32002
Fluorescence intensity, fluorescence competitive binding assay, OBP11 (SfurOBP11; ligand concentration 6, replicate 1): 31916
Fluorescence intensity, fluorescence competitive binding assay, OBP11 (SfurOBP11; ligand concentration 8, replicate 1): 31638
Fluorescence intensity, fluorescence competitive binding assay, OBP11 (SfurOBP11; ligand concentration 8, replicate 2): 32522
Fluorescence intensity, fluorescence competitive binding assay, OBP11 (SfurOBP11; ligand concentration 8, replicate 3): 31984
Fluorescence intensity, fluorescence competitive binding assay, OBP11 (SfurOBP11; ligand concentration 10, replicate 1): 34517
Fluorescence intensity, fluorescence competitive binding assay, OBP11 (SfurOBP11; ligand concentration 10, replicate 2): 33120
Fluorescence intensity, fluorescence competitive binding assay, OBP11 (SfurOBP11; ligand concentration 10, replicate 3): 33819
Fluorescence intensity, fluorescence competitive binding assay, OBP11 (SfurOBP11; ligand concentration 12, replicate 3): 31678
Fluorescence intensity, fluorescence competitive binding assay, OBP11 (SfurOBP11; ligand concentration 14, replicate 1): 31889
Fluorescence intensity, fluorescence competitive binding assay, OBP11 (SfurOBP11; ligand concentration 14, replicate 2): 31807
Fluorescence intensity, fluorescence competitive binding assay, OBP11 (SfurOBP11; ligand concentration 14, replicate 3): 32302
Fluorescence intensity, fluorescence competitive binding assay, OBP11 (SfurOBP11; ligand concentration 18, replicate 1): 36648
Fluorescence intensity, fluorescence competitive binding assay, OBP11 (SfurOBP11; ligand concentration 18, replicate 2): 40474
Fluorescence intensity, fluorescence competitive binding assay, OBP11 (SfurOBP11; ligand concentration 18, replicate 3): 36079
Fluorescence intensity, fluorescence competitive binding assay, OBP11 (SfurOBP11; ligand concentration 20, replicate 1): 36041
Fluorescence intensity, fluorescence competitive binding assay, OBP11 (SfurOBP11; ligand concentration 20, replicate 2): 35048
Fluorescence intensity, fluorescence competitive binding assay, OBP11 (SfurOBP11; ligand concentration 20, replicate 3): 35313
IC50 (SfurOBP2; SfurOBP2, protein and 1-NPN both 2.0 µM, competitor 2-20 µM, read-out: IC50): > 20 µM
Fluorescence competitive binding assay, OBP2 (raw fluorescence reading) (SfurOBP2; ligand concentration 2 (unit not given), replicate column 1 of 3): 15175
Fluorescence competitive binding assay, OBP2 (raw fluorescence reading) (SfurOBP2; ligand concentration 2 (unit not given), replicate column 2 of 3): 15154
Fluorescence competitive binding assay, OBP2 (raw fluorescence reading) (SfurOBP2; ligand concentration 2 (unit not given), replicate column 3 of 3): 16258
Fluorescence competitive binding assay, OBP2 (raw fluorescence reading) (SfurOBP2; ligand concentration 4 (unit not given), replicate column 1 of 3): 15758
Fluorescence competitive binding assay, OBP2 (raw fluorescence reading) (SfurOBP2; ligand concentration 4 (unit not given), replicate column 2 of 3): 17105
Fluorescence competitive binding assay, OBP2 (raw fluorescence reading) (SfurOBP2; ligand concentration 4 (unit not given), replicate column 3 of 3): 16490
Fluorescence competitive binding assay, OBP2 (raw fluorescence reading) (SfurOBP2; ligand concentration 6 (unit not given), replicate column 1 of 3): 15945
Fluorescence competitive binding assay, OBP2 (raw fluorescence reading) (SfurOBP2; ligand concentration 6 (unit not given), replicate column 2 of 3): 16570
Fluorescence competitive binding assay, OBP2 (raw fluorescence reading) (SfurOBP2; ligand concentration 6 (unit not given), replicate column 3 of 3): 19054
Fluorescence competitive binding assay, OBP2 (raw fluorescence reading) (SfurOBP2; ligand concentration 8 (unit not given), replicate column 1 of 3): 15963
Fluorescence competitive binding assay, OBP2 (raw fluorescence reading) (SfurOBP2; ligand concentration 8 (unit not given), replicate column 2 of 3): 18724
Fluorescence competitive binding assay, OBP2 (raw fluorescence reading) (SfurOBP2; ligand concentration 8 (unit not given), replicate column 3 of 3): 18059
Fluorescence competitive binding assay, OBP2 (raw fluorescence reading) (SfurOBP2; ligand concentration 10 (unit not given), replicate column 1 of 3): 16134
Fluorescence competitive binding assay, OBP2 (raw fluorescence reading) (SfurOBP2; ligand concentration 10 (unit not given), replicate column 2 of 3): 18215
Fluorescence competitive binding assay, OBP2 (raw fluorescence reading) (SfurOBP2; ligand concentration 10 (unit not given), replicate column 3 of 3): 19226
Fluorescence competitive binding assay, OBP2 (raw fluorescence reading) (SfurOBP2; ligand concentration 12 (unit not given), replicate column 1 of 3): 15563
Fluorescence competitive binding assay, OBP2 (raw fluorescence reading) (SfurOBP2; ligand concentration 12 (unit not given), replicate column 2 of 3): 19243
Fluorescence competitive binding assay, OBP2 (raw fluorescence reading) (SfurOBP2; ligand concentration 12 (unit not given), replicate column 3 of 3): 19003
Fluorescence competitive binding assay, OBP2 (raw fluorescence reading) (SfurOBP2; ligand concentration 14 (unit not given), replicate column 1 of 3): 19071
Fluorescence competitive binding assay, OBP2 (raw fluorescence reading) (SfurOBP2; ligand concentration 14 (unit not given), replicate column 2 of 3): 18512
Fluorescence competitive binding assay, OBP2 (raw fluorescence reading) (SfurOBP2; ligand concentration 14 (unit not given), replicate column 3 of 3): 18689
Fluorescence competitive binding assay, OBP2 (raw fluorescence reading) (SfurOBP2; ligand concentration 16 (unit not given), replicate column 1 of 3): 17244
Fluorescence competitive binding assay, OBP2 (raw fluorescence reading) (SfurOBP2; ligand concentration 16 (unit not given), replicate column 2 of 3): 19263
Fluorescence competitive binding assay, OBP2 (raw fluorescence reading) (SfurOBP2; ligand concentration 16 (unit not given), replicate column 3 of 3): 18663
Fluorescence competitive binding assay, OBP2 (raw fluorescence reading) (SfurOBP2; ligand concentration 18 (unit not given), replicate column 1 of 3): 23408
Fluorescence competitive binding assay, OBP2 (raw fluorescence reading) (SfurOBP2; ligand concentration 18 (unit not given), replicate column 2 of 3): 23725
Fluorescence competitive binding assay, OBP2 (raw fluorescence reading) (SfurOBP2; ligand concentration 18 (unit not given), replicate column 3 of 3): 20804
Fluorescence competitive binding assay, OBP2 (raw fluorescence reading) (SfurOBP2; ligand concentration 20 (unit not given), replicate column 1 of 3): 16894
Fluorescence competitive binding assay, OBP2 (raw fluorescence reading) (SfurOBP2; ligand concentration 20 (unit not given), replicate column 2 of 3): 20680
Fluorescence competitive binding assay, OBP2 (raw fluorescence reading) (SfurOBP2; ligand concentration 20 (unit not given), replicate column 3 of 3): 19308
Fluorescence competitive binding assay, fluorescence intensity (SfurOBP3; ligand concentration 2): 35042 and 35938 and 36236
Fluorescence competitive binding assay, fluorescence intensity (SfurOBP3; ligand concentration 4): 33936 and 35041 and 36163
Fluorescence competitive binding assay, fluorescence intensity (SfurOBP3; ligand concentration 6): 30371 and 31101 and 32222
Fluorescence competitive binding assay, fluorescence intensity (SfurOBP3; ligand concentration 8): 32781 and 31040 and 32847
Fluorescence competitive binding assay, fluorescence intensity (SfurOBP3; ligand concentration 10): 31032 and 32369 and 33307
Fluorescence competitive binding assay, fluorescence intensity (SfurOBP3; ligand concentration 12): 29013 and 34433 and 32292
Fluorescence competitive binding assay, fluorescence intensity (SfurOBP3; ligand concentration 14): 31092 and 30872 and 34922
Fluorescence competitive binding assay, fluorescence intensity (SfurOBP3; ligand concentration 16): 33838 and 32037 and 30214
Fluorescence competitive binding assay, fluorescence intensity (SfurOBP3; ligand concentration 18): 37931 and 38340 and 38776
Fluorescence competitive binding assay, fluorescence intensity (SfurOBP3; ligand concentration 20): 37363 and 39141 and 38102
binding affinity to SfurOBP3 (in words) (SfurOBP3; SfurOBP3): high binding affinities
IC50 (SfurOBP3; SfurOBP3, protein and 1-NPN both 2.0 µM, competitor 2-20 µM, read-out: IC50): > 20 µM
Fluorescence competitive binding assay, fluorescence intensity (SfurOBP1; ligand concentration 2 (μM)): 5991 and 6647 and 6019
Fluorescence competitive binding assay, fluorescence intensity (SfurOBP1; ligand concentration 4 (μM)): 9444 and 9717 and 9590
Fluorescence competitive binding assay, fluorescence intensity (SfurOBP1; ligand concentration 6 (μM)): 8928 and 9981 and 10192
Fluorescence competitive binding assay, fluorescence intensity (SfurOBP1; ligand concentration 8 (μM)): 7764 and 12061 and 8808
Fluorescence competitive binding assay, fluorescence intensity (SfurOBP1; ligand concentration 10 (μM)): 10672 and 12757 and 12848
Fluorescence competitive binding assay, fluorescence intensity (SfurOBP1; ligand concentration 12 (μM)): 11226 and 16440 and 11668
Fluorescence competitive binding assay, fluorescence intensity (SfurOBP1; ligand concentration 14 (μM)): 11457 and 12509 and 12654
Fluorescence competitive binding assay, fluorescence intensity (SfurOBP1; ligand concentration 16 (μM)): 9720 and 12853 and 11395
Fluorescence competitive binding assay, fluorescence intensity (SfurOBP1; ligand concentration 18 (μM)): 14020 and 17603 and 13863
Fluorescence competitive binding assay, fluorescence intensity (SfurOBP1; ligand concentration 20 (μM)): 16799 and 14644 and 13556
IC50 (SfurOBP1; SfurOBP1, protein and 1-NPN both 2.0 µM, competitor 2-20 µM, read-out: IC50): > 20 µM
behavioral response of S. furcifera (in words) (S. furcifera adults): strongly attracted
number of insects choosing hexane arm (S. furcifera adults; adults): 10
number of insects choosing volatilies arm (S. furcifera adults; adults): 25
number of insects failed (no choice) (S. furcifera adults; adults): 5
